# Results: publication PMC7492732, “Offloading Role of a Discrete Thioesterase in Type II Polyketide Biosynthesis” (mBio, 2020)
# Target: T1, FscTE (Streptomyces sp. FR-008, UniProt Q6W5Q5)
# T1 construct: His6 tag, pET28a, expressed in E. coli BL21(DE3)/pGro7
# T1 sequence (Q6W5Q5 1-285): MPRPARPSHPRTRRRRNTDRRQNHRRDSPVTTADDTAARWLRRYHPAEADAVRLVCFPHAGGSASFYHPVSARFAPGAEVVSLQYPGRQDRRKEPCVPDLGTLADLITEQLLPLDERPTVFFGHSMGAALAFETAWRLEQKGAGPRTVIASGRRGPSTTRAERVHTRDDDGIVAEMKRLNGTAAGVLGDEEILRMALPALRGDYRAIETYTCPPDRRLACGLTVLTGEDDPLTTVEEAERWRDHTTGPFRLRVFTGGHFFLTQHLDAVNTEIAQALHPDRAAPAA
# Test: DTNB spectrophotometric assay at […] nm
# Type: biochemical
structure (smiles),measurement,value
CCCC(=O)SCCNC(C)=O [butyryl-SNAC],DTNB spectrophotometric assay at 412 nm,A similar phenomenon was observed when butyryl-SNAC was used as a substrate
